Data from patent publication US9096500B2, “Acyl sulfonamide compounds” (Pfizer Limited, priority 2010, dated 2015).

Target: T1, Nav1.7 (or SCN9A) channel (Homo sapiens, UniProt Q15858)
T1 construct: expressed in transfected cells
Experiment: Nav1.7 (hSCN9A) electrophysiology assay, PatchXpress platform
Format: cell-based
Conditions: estimated IC50 from single point electrophysiology data, HEK cells stably expressing hSCN9A, held at V1/2 of inactivation, read-out: Nav1.7 EIC50
Summary of the method: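 HEK cells stably expressing hSCN9A were recorded by whole-cell voltage clamp, including on PatchXpress, at 22–24°C with extracellular solution at pH 7.4. A 20 msec step to 0 mV followed an 8 s conditioning prepulse to the empirically determined inactivation V1/2. Inhibition was taken from current amplitude before vs after compound.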

T1 sequence (Q15858 whole entry): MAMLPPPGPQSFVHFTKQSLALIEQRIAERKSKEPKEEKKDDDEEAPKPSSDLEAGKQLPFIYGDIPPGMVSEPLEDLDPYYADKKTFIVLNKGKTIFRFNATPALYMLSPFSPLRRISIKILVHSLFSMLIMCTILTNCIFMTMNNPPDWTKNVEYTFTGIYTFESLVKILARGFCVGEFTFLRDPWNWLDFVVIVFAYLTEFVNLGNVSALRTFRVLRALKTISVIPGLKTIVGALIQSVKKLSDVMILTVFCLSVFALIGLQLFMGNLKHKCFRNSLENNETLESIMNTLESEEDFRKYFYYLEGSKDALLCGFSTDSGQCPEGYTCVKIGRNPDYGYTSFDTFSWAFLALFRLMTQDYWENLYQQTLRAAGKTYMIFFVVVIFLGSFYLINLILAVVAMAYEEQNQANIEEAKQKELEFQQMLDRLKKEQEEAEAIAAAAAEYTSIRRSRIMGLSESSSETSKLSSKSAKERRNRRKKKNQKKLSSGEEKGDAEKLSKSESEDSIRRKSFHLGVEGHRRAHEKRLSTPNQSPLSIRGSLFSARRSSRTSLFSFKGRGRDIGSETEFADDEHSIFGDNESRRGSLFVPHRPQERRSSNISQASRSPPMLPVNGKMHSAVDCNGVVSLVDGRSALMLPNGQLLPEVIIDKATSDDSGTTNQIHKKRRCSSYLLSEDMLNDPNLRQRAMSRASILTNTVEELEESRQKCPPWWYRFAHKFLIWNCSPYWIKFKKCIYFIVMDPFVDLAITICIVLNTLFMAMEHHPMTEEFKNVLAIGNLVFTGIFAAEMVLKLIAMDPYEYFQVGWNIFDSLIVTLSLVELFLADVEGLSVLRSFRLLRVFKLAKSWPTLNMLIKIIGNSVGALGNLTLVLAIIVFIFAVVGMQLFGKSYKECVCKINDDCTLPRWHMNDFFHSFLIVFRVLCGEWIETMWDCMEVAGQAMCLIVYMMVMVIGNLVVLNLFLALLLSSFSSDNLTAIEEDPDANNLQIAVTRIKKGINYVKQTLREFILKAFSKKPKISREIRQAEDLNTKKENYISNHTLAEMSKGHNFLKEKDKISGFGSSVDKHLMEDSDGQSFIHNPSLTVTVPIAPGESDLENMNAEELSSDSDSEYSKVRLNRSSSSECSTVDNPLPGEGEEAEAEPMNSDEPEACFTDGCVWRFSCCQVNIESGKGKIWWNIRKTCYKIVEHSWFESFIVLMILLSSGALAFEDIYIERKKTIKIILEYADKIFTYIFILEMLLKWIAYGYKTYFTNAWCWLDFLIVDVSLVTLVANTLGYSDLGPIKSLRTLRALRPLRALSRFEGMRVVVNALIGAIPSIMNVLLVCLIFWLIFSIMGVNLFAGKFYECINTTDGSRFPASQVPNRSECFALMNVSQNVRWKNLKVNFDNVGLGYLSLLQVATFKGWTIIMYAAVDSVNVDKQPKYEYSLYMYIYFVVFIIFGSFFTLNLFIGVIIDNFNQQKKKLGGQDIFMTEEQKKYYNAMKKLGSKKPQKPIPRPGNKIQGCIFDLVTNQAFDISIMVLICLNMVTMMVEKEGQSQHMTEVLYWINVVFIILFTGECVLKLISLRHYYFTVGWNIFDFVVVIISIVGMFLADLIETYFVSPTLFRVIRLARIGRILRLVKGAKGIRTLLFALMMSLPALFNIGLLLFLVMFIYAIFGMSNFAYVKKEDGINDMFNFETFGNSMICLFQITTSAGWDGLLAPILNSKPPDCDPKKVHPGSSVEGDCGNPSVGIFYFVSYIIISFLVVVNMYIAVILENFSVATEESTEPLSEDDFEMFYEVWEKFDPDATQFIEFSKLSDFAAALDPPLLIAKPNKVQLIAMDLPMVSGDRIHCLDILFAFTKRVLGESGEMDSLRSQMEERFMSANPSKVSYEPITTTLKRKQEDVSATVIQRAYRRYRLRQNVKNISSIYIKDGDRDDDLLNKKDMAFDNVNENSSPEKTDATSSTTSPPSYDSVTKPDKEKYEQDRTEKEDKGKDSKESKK

Structure (SMILES) | IC50 [nM]
CS(=O)(=O)NC(=O)c1cc(F)c(COc2ccc(F)c(Cl)c2C#N)cc1F [Example 163, 4-[(3-chloro-2-cyano-4-fluorophenoxy)methyl]-2,5-difluoro-N-(methylsulfonyl)benzamide] | > 1000
CS(=O)(=O)NC(=O)c1cc(F)c(COc2cccc3ccccc23)cc1F [Example 165, 2,5-difluoro-N-(methylsulfonyl)-4-[(1-naphthyloxy)methyl]benzamide] | 740
Cc1nc(-c2cccc(OCc3cc(F)c(C(=O)NS(C)(=O)=O)cc3F)c2)no1 [Example 166, 2,5-difluoro-4-{[3-(5-methyl-1,2,4-oxadiazol-3-yl)phenoxy]methyl}-N-(methylsulfonyl)benzamide] | 1300
COc1ccccc1COc1ccc(C(=O)NS(C)(=O)=O)cc1 [Example 169, 4-[(2-methoxybenzyl)oxy]-N-(methylsulfonyl)benzamide] | > 3000
CS(=O)(=O)NC(=O)c1ccc(OCc2ccc(C#N)cc2)cc1 [Example 172, 4-[(4-cyanobenzyl)oxy]-N-(methylsulfonyl)benzamide] | > 3000
CS(=O)(=O)NC(=O)c1ccc(OCC2CCCCC2)cc1 [Example 174, 4-(cyclohexylmethoxy)-N-(methylsulfonyl)benzamide] | 1300
CS(=O)(=O)NC(=O)c1ccc(OCc2ccc(F)cc2)cc1 [Example 176, 4-[(4-fluorobenzyl)oxy]-N-(methylsulfonyl)benzamide] | > 1000
CS(=O)(=O)NC(=O)c1ccc(OCc2ccc(Cl)c(F)c2)cc1 [Example 178, 4-[(4-chloro-3-fluorobenzyl)oxy]-N-(methylsulfonyl)benzamide] | 810
CS(=O)(=O)NC(=O)c1ccc(OCc2cccc(C(F)(F)F)c2)cc1 [Example 179, N-(methylsulfonyl)-4-{[3-(trifluoromethyl)benzyl]oxy}benzamide] | > 1000

Next, values leading:

IC50 [nM] | Structure (SMILES)
730 | Cc1cc(OCc2cc(F)c(C(=O)NS(C)(=O)=O)cc2F)cc(C)c1C#N [Example 162, 4-[(4-cyano-3,5-dimethylphenoxy)methyl]-2,5-difluoro-N-(methylsulfonyl)benzamide]
> 3000 | COc1ccc(OCc2cc(F)c(C(=O)NS(C)(=O)=O)cc2F)cc1 [Example 164, 2,5-difluoro-4-[(4-methoxyphenoxy)methyl]-N-(methylsulfonyl)benzamide]
2600 | Cc1c(OCc2cc(F)c(C(=O)NS(C)(=O)=O)cc2F)ccc(F)c1F [Example 167, 4-[(3,4-difluoro-2-methylphenoxy)methyl]-2,5-difluoro-N-(methylsulfonyl)benzamide]
3100 | CS(=O)(=O)NC(=O)c1cc(F)c(COc2cccc(N3CCCCC3)c2)cc1F [Example 168, 2,5-difluoro-N-(methylsulfonyl)-4-[(3-piperidin-1-ylphenoxy)methyl]benzamide]
> 3000 | CS(=O)(=O)NC(=O)c1ccc(OCc2cccc(F)c2F)cc1 [Example 170, 4-[(2,3-difluorobenzyl)oxy]-N-(methylsulfonyl)benzamide]
2900 | CS(=O)(=O)NC(=O)c1ccc(OCc2ccc(F)cc2Cl)cc1 [Example 171, 4-[(2-chloro-4-fluorobenzyl)oxy]-N-(methylsulfonyl)benzamide]
250 | CS(=O)(=O)NC(=O)c1ccc(OCc2cc(Cl)cc(Cl)c2)cc1 [Example 173, 4-[(3,5-dichlorobenzyl)oxy]-N-(methylsulfonyl)benzamide]
2100 | CS(=O)(=O)NC(=O)c1ccc(OCc2cc(Cl)ccc2Cl)cc1 [Example 175, 4-[(2,5-dichlorobenzyl)oxy]-N-(methylsulfonyl)benzamide]
2100 | CS(=O)(=O)NC(=O)c1ccc(OCc2ccc(F)c(F)c2)cc1 [Example 177, 4-[(3,4-difluorobenzyl)oxy]-N-(methylsulfonyl)benzamide]
> 3000 | CS(=O)(=O)NC(=O)c1ccc(OCc2ccccc2F)cc1 [Example 180, 4-[(2-fluorobenzyl)oxy]-N-(methylsulfonyl)benzamide]
